In brackets after ≈: the same amount, converted by molar mass.
What was measured:
K562 = experiment: Growth inhibition of sensitive and drug-resistant cell lines (IC50), K562; format: cell-based; details: Homo sapiens; K562 cells
Method: (§1) The human lung cancer cell H1299 and H446, glioma cell U251 and U87MG, and human hepatic cellular cancer Bel-7402 cell in logarithmic growth phase were digested with pancreatic enzyme, and then suspended into DMEM or RPMI1640 containing 10% fetal bovine serum. The leukemic cells Kasumi-1 need no digestion, and were suspended into RPMI1640 containing 10% fetal bovine serum directly after centrifugalization. The cell density was adjusted to 1×10^4 cells/ml through cell counting, and the cell suspensions were seeded into a 96-well plate respectively, 100 μl/well, totally 6 groups of cells. The adherent cells were cultured overnight, the suspended cells were added different concentration gradients of dimeric phthalide compounds (S1-S6) directly, n=6 for each concentration of a single agent. The final volume was 200 ul, and the balance was supplemented with the culture medium. The plate was then incubated for 68 hours in 37° C., saturated humidity, 5% CO2 cell incubator. The medium was aspirated and 72 μl/well fresh culture medium was added. 8 μl […] (CCK-8) was added into each well and cultured for 2 hours. The absorbance was measured at 450 nm. The results were calculated as the 50% inhibiting drug concentration, i.e. IC50, using Sigmoidal simulation function by software Origin 7.0.
(§2) The cancer cells (various cell lines as shown in table 1 or FIG. 3) were seeded 1×10^3 cells per well into a 96-well plate. The suspended cells were added different concentration of dimeric phthalide compounds (S1-S6) directly, and the adherent cells were cultured overnight and added different concentration of dimeric phthalide compounds (S1-S6). The different concentration of dimeric phthalide compounds were divided into 10 groups: 0, 0.1, 0.5, 1, 5, 10, 20, 40, 80, 160 μg/ml, n=6 for each concentration.
(§3) According to the method described in Example 2, […] was detected and IC50 was calculated. The experiment was repeated for 3 times.
(§4) The growth inhibition effects of dimers of S1-S6 on its sensitive cell lines as well as the drug-resistant sub-strains (IC50 (μg/ml)) were shown in table 1 and FIG. 3.

K562/Adr = experiment: Growth inhibition of sensitive and drug-resistant cell lines (IC50), K562/Adr; format: cell-based; details: Homo sapiens; K562/Adr drug-resistant cells
Text: (§5) HL-60/ADR, MCF-7/ADR, K562/ADR, Bel-7402/5-FU, KBV200, SMMC-7721/Adr were respectively chemotherapeutics Adriamycin (ADR), 5-Fluorouracil (5-FU) or vincristine (VCR) drug-resistant sub-stains of HL-60, MCF-7, K562, Bel-7402, KB, SMMC-7721 cells (all from Chinese Academy of Medical Sciences). NB4-R2 was all trans-retinoic acid (ATRA) drug-resistant sub-stain (from Pathophysiology Research Department of Shanghai JiaoTong University). The main drug-resistance mechanism of K562/ADR was high expression of P-glycoprotein (P-gp), along with increased expression of Bcl-2. In addition to high expression of P-gp, the drug-resistance mechanism of MCF-7/ADR also related to the high expression of Breast Cancer Resistant Protein (BCRP). The main drug-resistance mechanism of HL-60/ADR was high expression of Multidrug Resistance Protein 1 (MRP1), along with high expression of Bcl-2, Bcl-xL. […] The main drug-resistance mechanism of KBV200 was high expression of P-gp and its increased activity. The drug-resistance mechanism of NB4-R2 on ATRA was mutation in the RAR gene locus.
as §1, §2, §3, §4

KB [1] = experiment: Growth inhibition of sensitive and drug-resistant cell lines (IC50), KB; format: cell-based; details: Homo sapiens; KB cells, Table 1
Method: (§6) In the following Examples, the cell lines used were H1299, H446 (human lung cancer cell line), KB (human oral cavity carcinoma cell line), NB4, HL-60 (human leukemic cell line), U251 ? U87MG (human glioblastoma cell line), MCF-7 (human breast carcinoma cell line), Bel-7402 and SMMC7721 (human hepatic cellular cancer cell line), SW620 (human colon carcinoma cell line), HDF (human dermis fibroblast), HUVEC (human umbilical vein endothelial cell line) and Kasumi-1 (human acute myeloid leukaemia cell line), all from American Type Culture Collection (ATCC).
as §1, §2, §3, §4

KBv200 = experiment: Growth inhibition of sensitive and drug-resistant cell lines (IC50), KBv200; format: cell-based; details: Homo sapiens; KBv200 drug-resistant cells
Text: as §5, §1, §2, §3, §4

MCF-7 = experiment: Growth inhibition of sensitive and drug-resistant cell lines (IC50), MCF-7; format: cell-based; details: Homo sapiens, MCF7; MCF-7 cells
Method: as §6, §1, §2, §3, §4

MCF-7/Adr = experiment: Growth inhibition of sensitive and drug-resistant cell lines (IC50), MCF-7/Adr; format: cell-based; details: Homo sapiens, NCI/ADR-RES; MCF-7/Adr drug-resistant cells
Text: as §5, §1, §2, §3, §4

Bel-7402 [2] = experiment: Growth inhibition of sensitive and drug-resistant cell lines (IC50), Bel-7402; format: cell-based; details: Homo sapiens; Bel-7402 cells, Table 1
Method: as §6, §1, §2, §3, §4

Bel-7402/5-Fu = experiment: Growth inhibition of sensitive and drug-resistant cell lines (IC50), Bel-7402/5-Fu; format: cell-based; details: Homo sapiens, Bel7402/5-FU; Bel-7402/5-Fu drug-resistant cells
Text: as §5, §1, §2, §3, §4

SMMC-7721 = experiment: Growth inhibition of sensitive and drug-resistant cell lines (IC50), SMMC-7721; format: cell-based; details: Homo sapiens; SMMC-7721 cells
Method: as §6, §1, §2, §3, §4

SMMC-7721/Adr = experiment: Growth inhibition of sensitive and drug-resistant cell lines (IC50), SMMC-7721/Adr; format: cell-based; details: Homo sapiens; SMMC-7721/Adr drug-resistant cells
Text: as §5, §1, §2, §3, §4

HUVEC = experiment: Vascular endothelial cell inhibition assay (CCK-8), HUVEC; format: cell-based; details: Homo sapiens, 72 h
Method: (§7) 2×10^3 cells were seeded into a 96-well plate and cultured for 24 h. S1-S6 of different concentrations (0, 0.01, 0.1, 0.5, 1, 2.5, 5, 10, 20, 40, 80, 160 μg/ml, respectively) were added and incubated for 72 h, n=6 for each concentration. The inhibition of cell proliferation was detected by CCK-8 assay, the results were calculated as IC50, as describe in Example 3.

HDF = experiment: Vascular endothelial cell inhibition assay (CCK-8), HDF; format: cell-based; details: Homo sapiens, 72 h
Method: as §7

KB [3] = experiment: Vascular endothelial cell inhibition assay (CCK-8), KB; format: cell-based; details: Homo sapiens, 72 h, CCK-8, Table 2
Method: as §7

Bel-7402 [4] = experiment: Vascular endothelial cell inhibition assay (CCK-8), Bel-7402; format: cell-based; details: Homo sapiens, 72 h, CCK-8, Table 2
Method: as §7

[5] = system: secretion of VEGF in H1299 cell; experiment: VEGF in supernatant of tumor cell H1299 culture (VEGF-ELISA); format: cell-based, human; details: H1299, compound 5 μg/ml, 24 h; for inhibition at 5 µg/mL: Homo sapiens, NCI-H1299, read-out: Inhibition rate of VEGF secretion
Method: Assay of vascular endothelial cell growth factor (VEGF) in supernatant of tumor cell H1299 culture. The cell was seeded into a 24-well plate (n=3 for each sample). H1299 cell was treated with S1-S6 respectively and cultured for 24 h. The culture supernatants from each group were collected and operated according to the instruction of VEGF-ELISA kit (JIN MEI Corporation). The samples were added, incubated, washed and detected at 450 nm for OD values of each sample. The standard curve was obtained by using different dose of VEGF standards and the secretory volume of VEGF in the supernatant was calculated.

[6] = system: U87MG, H1299 and HL-60 heterograft tumors; experiment: Inhibition of the growth of nude mouse heterograft tumors; format: in vivo, Balb/c male nude mice; details: FIG. 9
Method: Experimental grouping: Balb/c male nude mice were used, each weighted 18-22 g, and three assays were performed. The mice were seeded with U87MG, H1299 and HL-60 respectively. The animals were divided into three groups for each experiment, one as control, one was administered with the dimeric phthalide compounds, and one was administered with monomers of phthalide compound, 6 animals for each group.
For the group which was administered with monomers of phthalide compound, we used n-butylidenephthalide (BP) (Sigma) as active ingredient for tumor suppression, the compound had the structure as follows:
Experimental Process The H1299, HL-60 or U87MG cells growing in logarithmic phase were used. […] When the tumors had gown into 0.1-0.5 cm^3 (about 7-10 days), the animals were intraperitoneal injected with the dimeric phthalide compound S4 (25 mg/kg), S6 (30 mg/kg), S1 (32 mg/kg), each 200 μl; for the group of monomers of phthalide compound, the mice were intraperitoneal injected with n-butylidenephthalide (250 mg/kg); the control group was administered with equal volume of vehicle. The animals were sacrificed after 4 weeks, and the subcutaneous tumors were separated. Photographs were taken (FIG. 9A) and the tumors were weighted (FIG. 9B).

IC50 (K562) [µg/mL]	IC50 (K562/Adr) [µg/mL]	IC50 (KB [1]) [µg/mL]	IC50 (MCF-7) [µg/mL]	IC50 (MCF-7/Adr) [µg/mL]	IC50 (Bel-7402 [2]) [µg/mL]	IC50 (Bel-7402/5-Fu) [µg/mL]	IC50 (SMMC-7721) [µg/mL]	IC50 (SMMC-7721/Adr) [µg/mL]	IC50 (KB [3]) [µg/mL]	IC50 (Bel-7402 [4]) [µg/mL]	SMILES	IC50 (KBv200) [µg/mL]	IC50 (HUVEC) [µg/mL]	IC50 (HDF) [µg/mL]	Supernatant VEGF [5] [ng/ml/10^6 cells]	inhibition at 5 µg/mL [5] [%]	dose needed to reach similar effects compared with the dimeric phthalide compound [6] [folds]	tumor inhibition effect ([6]; intraperitoneal, S4 25 mg/kg, S6 30 mg/kg, S1 32 mg/kg, BP 250 mg/kg, 4 weeks)
17.4 ± 2.06 (≈ 44 µM)	19.2 ± 1.71 (≈ 48.3 µM)	19 ± 1.91 (≈ 48 µM)	32.1 ± 3.21 (≈ 81 µM)	34 ± 3.06 (≈ 85.7 µM)	28.1 ± 3.96 (≈ 70.9 µM)	29.3 ± 2.3 (≈ 74 µM)	25.4 ± 2 (≈ 64.1 µM)	26.7 ± 2.6 (≈ 67.3 µM)	18.9 (≈ 47.7 µM)	44.3 (≈ 112 µM)	CCC/C=C1\OC(=O)C2=C1CCC1[C@H]2C23C=CCC[C@@H]2C1(C(=O)CCC)OC3=O (single isomer, unassigned) [S3]	20.4 ± 2.6 (≈ 51.6 µM)	5.99 (≈ 15.1 µM)	98.7 (≈ 249 µM)	268.7 ± 36.13	28	–	–
–	–	–	–	–	–	–	–	–	–	–	CCC/C=C1\OC(=O)c2ccccc21 [BP, n-butylidenephthalide, reference compound]	–	–	–	–	–	≥ 10	some inhibition effects
18.4 ± 1.02 (≈ 48.7 µM)	20.4 ± 1.53 (≈ 54 µM)	15.8 ± 1.25 (≈ 41.7 µM)	25.6 ± 2.01 (≈ 67.7 µM)	29.4 ± 2.8 (≈ 77.8 µM)	27.9 ± 2.54 (≈ 73.6 µM)	29.7 ± 1.99 (≈ 78.4 µM)	37.9 ± 2 (≈ 100 µM)	38.3 ± 1.87 (≈ 101 µM)	37.8 (≈ 99.9 µM)	25.6 (≈ 67.7 µM)	CCC/C=C1\OC(=O)C2=C1CCC1C2C2(OC(=O)c3ccccc32)[C@@H]1CCC (stereo partly shown) [S2]	16.4 ± 1.98 (≈ 43.2 µM)	4.76 (≈ 12.6 µM)	83.2 (≈ 220 µM)	245.71 ± 34.27	34.2	–	–
